Results taken from patent US11060715B2, “Ex vivo proliferation of epithelial cells” (PROPAGENIX INC., priority 2015, dated 2021).

How the values were obtained:
[1] = tested on: human foreskin keratinocytes (HFK) and human bronchial epithelial cells (HBEC); assay: Cell growth with increasing isoproterenol in KSFM plus A83-01 and Y-27632, six days; format: cell-based; conditions: in KSFM plus 1 μM A83-01 and 5 μM Y-27632, six days
Description: In a further investigation, epithelial cell growth was assessed in the presence of a beta-adrenergic agonist (i.e., a beta-adrenergic receptor agonist). Human foreskin keratinocytes (HFK) and human bronchial epithelial cells (HBEC) were cultured in KSFM plus 1 μM A83-01 and 5 μM Y-27632, supplemented with increasing concentrations of isoproterenol (a beta-adrenergic receptor agonist that increases cytosolic cAMP levels). Cell numbers were counted after six days to calculate cell growth relative to control.

[2] = tested on: bronchial epithelial cells; assay: Effect of calcium content on bronchial epithelial cells in KSFM plus A83-01 and Y-27632 (morphology, TEER); format: cell-based, human
Description: Effects of culture media calcium content on cell behavior were assessed for epithelial cells cultured in KSFM plus A83-01 and Y-27632. Human bronchial epithelial cells were grown KSFM (with 90 μM CaCl2) plus A83-01 and Y-27632. These cells dispersed throughout the culture vessel (FIG. 28, left panel), and few cells formed intercellular connections, even when they were in close proximity to each other. […] Cells in the center of the patches tended to pile up, and boundaries between individual cells generally were not discernable. In certain instances, abnormal elongations formed between clusters.
In a further investigation, effects of culture media calcium content on intercellular junctions was assessed for bronchial epithelial cells cultured in KSFM plus A83-01 and Y-27632. Intercellular junctions were assessed according to paracellular flow of ions as measured by trans-epithelium electric resistance (TEER). […] Bronchial epithelial cells were plated on porous membrane support ([…], Corning, 354474) and maintained for 7 days when the membrane was covered with culture medium (submerged phase, grayed box in FIG. 29, top panel). On day 8, the medium was removed from the apical side of the membrane, and the cells were exposed to air to induce further differentiation. […]

[3] = tested on: human foreskin keratinocytes (HFK); assay: Differentiation of keratinocytes at high CaCl2 in KSFM+A+Y (ZO-1 staining, TEER, H&E); format: cell-based
Description: Specifically, late passage human foreskin keratinocytes (HFK) cultured in KSFM supplemented with 1 μM A83-01 and 5 μM Y-27632 (KSFM+A+Y) at low CaCl2 (90 μM) were allowed to reach confluence. The cells remained in the KSFM+A+Y conditions and the CaCl2 concentration was raised to 1.5 mM to induce differentiation.
Keratinocytes established increasing transmembrane electric resistance (TEER) over time in air-liquid-interface differentiation, in the presence of high concentration (1.5 mM) of CaCl2 in KSFM plus A 83-01 and Y-27632. Specifically, human foreskin keratinocytes (HFK) previously cultured in KSFM supplemented with 1 μM A83-01 and 5 μM Y-27632 (KSFM+A+Y) at low CaCl2 (90 μM) were plated on a porous membrane support ([…], Corning, 354474) and maintained for 14 days. The cells were covered by culture medium (KSFM+A+Y and 1.5 mM of CaCl2) for the first day (submerged phase, grayed box in FIG. 34) and exposed to air for the remaining days.
Keratinocytes formed an epidermal-like structure over time in air-liquid-interface differentiation, in the presence of high concentration (1.5 mM) of CaCl2 in KSFM plus A 83-01 and Y-27632. Specifically, human foreskin keratinocytes (HFK) previously cultured in KSFM supplemented with 1 μM A83-01 and 5 μM Y-27632 (KSFM+A+Y) at low CaCl2 (90 μM) were plated on a porous membrane support ([…], Corning, 354474) and maintained for 14 days. […]

[4] = tested on: human telomerase reverse transcriptase (hTERT) gene; assay: hTERT expression by quantitative real-time PCR in bronchial epithelial cells; format: cell-based; conditions: KSFM
Description: (§1) Total RNA was prepared using TRIzol® Plus RNA Purification Kit (Life Technologies, 12183-555) and PureLink® RNA Mini Kit (Life Technologies, 12183018A), following the manufacturer's instructions. One hundred nanogram total RNA was used for the determination of human telomerase reverse transcriptase (hTERT) expression using the TaqMan® RNA-to-CT™ 1-Step Kit (Life Technologies, 4392938), following the protocol provided by the supplier. hTERT primers and Taqman® probe used were as follows: forward primer, 5′-[…]-3′ (SEQ ID NO:7), reverse primer, 5′-[…]-3′ (SEQ ID NO:8) and Taqman® probe, 5′-[…]-3′ (SEQ ID NO:9).
(§2) In this example, hTERT expression in epithelial cells was assessed in the presence of an ALK5 inhibitor, a Rho kinase inhibitor (i.e., a Rho-associated protein kinase inhibitor), or both. Expression of hTERT gene was examined by quantitative real-time PCR in bronchial epithelial cells and prostate epithelial cells. The cells were treated with an ALK5 inhibitor, A83-01, or a Rho kinase inhibitor (i.e., a Rho-associated protein kinase inhibitor), Y-27632, or both inhibitors, at different passages in KSFM.

[5] = tested on: human telomerase reverse transcriptase (hTERT) gene; assay: hTERT expression by quantitative real-time PCR in prostate epithelial cells; format: cell-based; conditions: KSFM
Description: as §1, §2
As shown in FIG. 6A and FIG. 6B, prostate epithelial cells at early passage (p2) expressed low level of hTERT, which quickly diminished at passage 3 and became non-detectible by passage 5.

[6] = tested on: prostate epithelial cells; assay: Plating efficiency of prostate epithelial cells in KSFM; format: cell-based, human; conditions: regular tissue culture surface
Description: (§3) Epithelial cells (prostate epithelial cells and bronchial epithelial cells) were plated at 3,000-10,000 viable cells/cm^2 in tissue culture vessels, using culture medium as indicated in Examples 2 to 5 and FIGS. 1 to 17, and incubated at 37° C. with 5% CO2. The medium was changed every 2 or 3 days. Cells were sub-cultured using standard trypsinization method when they were about 70-90% confluent. Total cell number was determined using the Countess II Automated Cell Counter (Life Technologies, AMQAX1000) following manufacturer's instructions.
(§4) In this example, epithelial cell plating efficiency, i.e., number of cells that efficiently attach to the cell culture surfaces, continue to divide and grow into colonies, was examined under various conditions.
(§5) However, those few cells that did attach continued to proliferate.
Many prostate epithelial cells attached to regular tissue culture surface in the presence of both A83-01 and Y-27632 at day 2 after plating.

[7] = tested on: bronchial epithelial cells; assay: Plating efficiency of bronchial epithelial cells in KSFM; format: cell-based, human; conditions: regular tissue culture surface
Description: as §3, §4, §5
Many bronchial epithelial cells attached to regular tissue culture surface in the presence of both A83-01 and Y-27632 at day 2 after plating.

[8] = tested on: prostate epithelial cells; assay: Growth (population doublings) of prostate epithelial cells in culture; format: cell-based, human
Description: as §3
(§6) A formula used for the calculation of population doublings (PD) is presented in Equation A: n=3.32*(log Y−log I)+X Equation A where n=the final PD number at end of a given subculture, Y=the cell yield at the time of harvesting, I=the cell number used as inoculum to begin that subculture, and X=the doubling level of the inoculum used to initiate the subculture being quantitated.
(§7) Prostate and bronchial epithelial cells were grown in KSFM in the presence of Rho kinase inhibitor (i.e., Rho-associated protein kinase inhibitor) Y-27632.
To examine the effects of additional in vitro and/or ex vivo growth conditions, prostate epithelial cells were grown in KSFM or PrEGM in the presence of media alone, ALK5 inhibitor A83-01, Rho kinase inhibitor (i.e., Rho-associated protein kinase inhibitor) Y-27632, or both (with or without collagen).

[9] = tested on: bronchial epithelial cells; assay: Growth (population doublings) of bronchial epithelial cells in culture; format: cell-based, human
Description: as §3, §6, §7
Similar to the experiment above, bronchial epithelial cells were grown in KSFM in the presence of media alone, ALK5 inhibitor A83-01, Rho kinase inhibitor (i.e., Rho-associated protein kinase inhibitor) Y-27632, or both (with or without collagen).

[10] = tested on: late passage prostate epithelial cells; assay: Proliferation of late passage prostate epithelial cells in KSFM plus compounds, 5 days; format: cell-based, human
Description: Stocks of certain chemicals used in the study were prepared by dissolving in DMSO to 10 mM. The chemical stocks were added to culture media to desired final concentrations, as described in Examples 2 to 5 and shown in FIGS. 1 to 17, from the time when cell culture was initiated.
In a control experiment with no added compound, there was minimum increase of cell numbers after 5 days.
In control experiment with no inhibitor added to KSFM, there was minimum increase of cell numbers after 5 days. […] As described above, these include Rho kinase inhibitors (i.e., Rho-associated protein kinase inhibitors) such as Y-27632, SR 3677, GSK 429286 and Thiazovivin; PAK1 inhibitor IPA-3; and myosin II inhibitor (i.e., non-muscle myosin II (NM II) inhibitor) Blebbistatin.

keratinocytes = assay: Expansion of keratinocytes in KSFM supplemented with combinations of components; format: cell-based, human; conditions: increasing doses, KSFM with EGF, isoproterenol, A 83-01 and rHA
Description: In another experiment, keratinocytes were cultured in KSFM supplemented with various combinations of components.
In another experiment, keratinocytes were cultured in the presence of increasing doses of ROCK inhibitor (Y-27632) or Myosin II ATPase inhibitor (blebbistatin), in KSFM supplemented with EGF (0.5 ng/mL), isoproterenol (3 μM), A 83-01 (1 μM), and recombinant human serum albumin (expressed in rice; 100 μg/mL).
In another experiment, keratinocytes were cultured in the presence of increasing doses (between 10 nM to 2 μM) of retinoic acid receptors (RAR) antagonist BMS-453 or retinoic acid receptors (RAR) antagonist BMS-195614, in KSFM supplemented with EGF (0.5 ng/mL), isoproterenol (3 μM), A 83-01 (1 μM), and recombinant human serum albumin (expressed in rice; 100 μg/mL).

[11] = KSFM, compound used alone, late passage

CC(C)NCC(O)c1ccc(O)c(O)c1 (centres unmarked) [isoproterenol]
cell growth relative to control [1]: further increased epithelial cells growth

[Ca+2].[Cl-].[Cl-] [CaCl2]
cell behavior (morphology) ([2]; 1 mM CaCl2 in KSFM plus A83-01 and Y-27632): aggregate into tight clusters
trans-epithelium electric resistance (TEER) ([2]; high concentration (1 mM) in KSFM plus A 83-01 and Y-27632): increasing TEER
epidermal-like structure formation (H&E) ([3]; 1.5 mM CaCl2 in KSFM+A+Y, air-liquid-interface, day 14): differentiated into multi-layer structures
tight junction formation (ZO-1 staining) ([3]; CaCl2 raised to 1.5 mM in KSFM+A+Y): Tight junction formation was observed

C[C@@H](N)[C@H]1CC[C@H](C(=O)Nc2ccncc2)CC1.Cl.Cl [Y-27632, (R)-(+)-trans-4-(1-Aminoethyl)-N-(4-Pyridyl)cyclohexanecarboxamide dihydrochloride]
hTERT expression ([4]; early passage (p3)): slightly induced
hTERT expression ([4]; late passage (p6)): non-detectible
hTERT expression ([5]; early passage (p2)): induced
hTERT expression ([5]; late passage (p5)): non-detectible
plating efficiency in the presence of A83-01 [6]: ameliorated the low plating efficiency
plating efficiency in the presence of A83-01 [7]: ameliorated the low plating efficiency
population doubling (PD) reached before cells entered senescence ([8]; KSFM): > 20
proliferation [8, 11]: did not promote the proliferation
total population doublings ([8]; added to KSFM): slightly increased the total population doublings
proliferation [9, 11]: did not promote the proliferation
total population doublings ([9]; added to KSFM): slightly increased the total population doublings
cell proliferation after 5 days ([10]; KSFM plus compound alone (FIG. 17)): slight increase of cell proliferation
total cell number after 5 days ([10]; KSFM plus individual compound alone, 5 μM, 1 μM and 0.2 μM (FIG. 16)): slight increase of total cell numbers
cell proliferation after 5 days ([10]; used together with A83-01 in KSFM, 5 μM, 1 μM and 0.2 μM (FIG. 17)): synergistically increased
cell growth rate (keratinocytes): No significant increase of cell growth rate
